Where “and” joins values, the source holds several entries; their conditions need not be identical. Equal entries are not always repeated.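 Test compounds were applied to cells in 96-well plates for 48 hours at 5 doses. GI50: concentration for 50% inhibition of growth. TGI is the concentration that stops growth completely.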
How the values were obtained:
Assay in all cases: NCI-60 cell line screen, 48 h
HCT-116 colon = tested on: HCT-116 colon
SF-295 CNS = tested on: SF-295 CNS
COLO 205 colon = tested on: COLO 205 colon
SK-MEL-28 melanoma = tested on: SK-MEL-28 melanoma
HT29 colon = tested on: HT29 colon
NCI-H226 lung = tested on: NCI-H226 lung
UO-31 renal = tested on: UO-31 renal
SK-MEL-2 melanoma = tested on: SK-MEL-2 melanoma
MDA-MB-435 = tested on: MDA-MB-435
BT-549 breast = tested on: BT-549 breast

SMILES	TGI (HCT-116 colon)	TGI (SF-295 CNS)	TGI (COLO 205 colon)	TGI (SK-MEL-28 melanoma)	TGI (HT29 colon)	TGI (NCI-H226 lung)	TGI (UO-31 renal)	TGI (SK-MEL-2 melanoma)	GI50 (HCT-116 colon)	GI50 (COLO 205 colon)	GI50 (SK-MEL-28 melanoma)	GI50 (HT29 colon)	GI50 (NCI-H226 lung)	GI50 (UO-31 renal)	GI50 (MDA-MB-435)	TGI (MDA-MB-435)	GI50 (BT-549 breast)	TGI (BT-549 breast)	GI50 (SK-MEL-2 melanoma)	GI50 (SF-295 CNS)
CC1(Cl)CC2OC3(Br)C=CC(C)(O)C2(CC1Br)C3(C)C (stereo not given)	> 100 µM	> 100 µM	> 100 µM	> 100 µM	> 100 µM	> 100 µM	> 100 µM	> 100 µM	–	–	–	–	–	–	–	–	–	–	–	–
C/C(=N\NC(N)=S)c1cc(C)c(C)cc1C	> 100 µM	> 100 µM	> 100 µM	> 100 µM	47.6 µM	> 100 µM	> 100 µM	> 100 µM	–	–	–	–	–	–	–	–	–	–	–	–
O=C(C=Nc1ccccc1C(=O)[O-])c1cccs1.O=C(C=Nc1ccccc1C(=O)[O-])c1cccs1.[Co+2]	> 100 µM	> 100 µM	> 100 µM	> 100 µM	> 100 µM	–	> 100 µM	> 100 µM	–	–	–	–	–	–	–	–	–	–	–	–
CCN1/C(=C/C=C/c2n(-c3ccccc3)c3ccc(-c4nc5ccccc5s4)cc3[n+]2CC)N(c2ccccc2)c2ccc(-c3nc4ccccc4s3)cc21	> 50 µM	–	0.919 µM	5.82 µM	> 50 µM	15.6 µM	3.57 µM	2.85 µM	0.436 µM	0.187 µM	0.488 µM	0.333 µM	0.317 µM	0.622 µM	1.35 µM	> 50 µM	0.5 µM	3.28 µM	0.89 µM	–
CC(=O)O[C@@]12CO[C@@H]1C[C@H](O)[C@@]1(C)C(=O)[C@H](O)C3=C(C)[C@@H](OC(=O)[C@H](O)[C@@H](NC(=O)OC(C)(C)C)c4ccccc4)C[C@@](O)([C@@H](OC(=O)c4ccccc4)[C@H]21)C3(C)C	> 100 µM	0.133 µM	0.059 µM and 0.00717 µM	36.5 µM	–	43.4 µM	18 µM	–	0.00203 µM	0.0023 µM and 0.000963 µM	0.0327 µM and 0.0359 µM	0.00746 µM and 0.00257 µM	0.00366 µM	0.247 µM	–	–	–	–	0.0269 µM	0.0123 µM and 0.0146 µM
COc1cc2c(cc1OCCCCCOc1cc3c(cc1OC)C(=O)N1CC(F)C[C@H]1C=N3)N=C[C@@H]1CC(F)CN1C2=O (stereo not given in full)	–	0.694 µM	0.465 µM	8.45 µM	> 58.6 µM	–	4.64 µM	–	–	0.191 µM	0.424 µM	0.246 µM	–	0.315 µM	0.169 µM	0.761 µM	0.0939 µM	0.721 µM	0.279 µM	< 0.0148 µM
CCOc1ccccc1NC(=O)c1cc2ccccc2cc1O	8.02 µM	9.46 µM	26.3 µM	20.2 µM	25.4 µM	10.8 µM	12.5 µM	5.47 µM	2.88 µM	12.7 µM	4.91 µM	8.35 µM	2.81 µM	2.81 µM	2.38 µM	7.08 µM	–	–	2.42 µM	2.84 µM
C/C=C/C1=C(Cl)C(=O)[C@@H](Cl)[C@@]1(O)C(=O)OC	11.7 µM	27.9 µM	3.22 µM	14.2 µM	15.4 µM	15.7 µM	10.2 µM	7.56 µM	–	–	–	–	–	–	–	–	–	–	–	–
CC[O-].CC[O-].O=C([CH-]C(=O)c1cccnc1)c1ccccc1.O=C([CH-]C(=O)c1cccnc1)c1ccccc1.[Ti+4]	> 100 µM	> 100 µM	–	> 100 µM	> 100 µM	> 100 µM	> 100 µM	> 100 µM	> 100 µM	–	> 100 µM	57.1 µM	68.1 µM	> 100 µM	–	–	–	–	> 100 µM	77.6 µM

— PubChem BioAssay (NCI)
